Source: patent publication US20250230226A1, “PLXDC1/PLXDC2 ACTIVATORS AND THEIR USE IN THE TREATMENT OF BLOOD VESSEL DISORDERS” (THE REGENTS OF THE UNIVERSITY OF CALIFORNIA, priority 2019, published 2025)

System: LL/2 lung cancer tumor endothelial cells
Experiment: Lung LL2 ex vivo model of tumor angiogenesis
Format: cell-based, mouse
Details: for Cell death: drug treatment for two days, ratio of red area to total endothelial cell area; for 48 hrs (morphology observations): LL/2 tumor endothelial cells
Experimental: An ex vivo tumor angiogenesis model was developed to test the efficacy of anti-cancer candidate agents. The following protocol describes the Ex Vivo Tumor Angiogenesis Model.
• 1. The day before the experiment, all necessary tools were sprayed with 70% ethanol and sterilized under UV light overnight, including blade, dissecting and micro-dissecting scissors and […]. 24-well dishes were placed at 4° C. to pre-chill plates and Matrigel was thawed, 24 hours before tumor dissection. • 2. 70% ethanol was sprayed on working bench. Two sterile petri dishes were prepared with 10 ml sterile PBS. The following steps 3 and 4 are necessary for mouse tumor models. For fresh human tumor, steps 3 and 4 are skipped. • 3. The tumor-bearing mice were euthanized. 70% ethanol was sprayed on the mouse and the tumor was removed using sterilized dissecting tools (avoid the fur). The tumor was rinsed in petri dish with sterile PBS to remove ethanol and fur. The tumor was transferred to a new petri dish with PBS for dissection. The dish is placed on ice. • 4. Pre-chilled sterile pipet tips were used to seed regular Matrigel in 24 well plates on ice. Matrigel (30 μl) was dropped in the middle of each well without touching the edge of the well (avoid introducing bubbles if possible). • 5. The tumor was cut in halves using the sterile blade. Healthy tumor tissue that is not necrotic and is within the tumor capsule was identified and isolated. The healthy tumor tissue was cut into small pieces. For instance, a suitable size for the tumor tissue is 0.5 mm (H)×0.5 mm (L)×0.3 mm (D) with a total volume of 0.075 mm^3. • 6. Each tumor piece was gently transferred and embedded in the Matrigel drop in the 24-well plate. The embedded piece was placed in the bottom and middle of each Matrigel drop. The plate was kept on ice all the time. • 7. After seeding the tumor pieces, plates were incubated in a 37° C. cell culture incubator without medium for 10 minutes in order for the Matrigel to solidify. • 8. Endothelial Growth Medium (0.5 ml) was added to each well and incubated at 37° C. with 5% CO2. Treatment was not added until the new endothelial cells was grown out of the tumor or were larger than 3 mm in diameter. This usually takes 4 days for the LL2 Lewis lung cancer model and 7 days for the CT26 colon cancer model. For human tumor models, the growth time is typically 2-3 weeks, depending on the tumor type. Media was changed every 4 days during prolonged culture. Typically, when the tumor tissue grows to 2 mm in diameter, it was good for drug testing. A size of about 3 mm in diameter can make visualization easier. • 9. When the assay was ready to be analyzed for cell death (e.g., 48 hours after drug addition), the dye mixture was prepared by mixing 6 μl of green dye to stain live cells (5 mg/ml Fluorescein diacetate or FDA in DMSO) with 30 μl of red dye (2.5 mg/ml Propidium iodide or PI in PBS) to stain dead cells in an Eppendorf tube. The FDA dye needs to be stored frozen in a −20° C. freezer because it has a labile ester bond. • 10. 1 μl of the dye mixture was added to each well of the 24-well dish. It is usually preferred to do one 24-well dish at a time given the amount of time needed to take pictures (the green dye is not as stable in the cells in the long term). • 11. The dish was gently rocked a few times to mix the dye with the media in the wells and incubate the dish at 37° C. for 10 min (too long incubation can make the green signal too intense). • 12. Each well was washed with 0.5 ml of sterile PBS and then 0.5 ml of phenol red free SFM was added to each well. Alternatively 0.5 ml of regular Endothelial Cell Growth Media can be added to each well if this well needs to be continuously maintained after the experiment. • 13. An inverted microscope using the 2× objective lens was used to observe morphological changes in the experimental wells. • 14. […]

[1] = Mus musculus, Endothelial cell, 48 h, read-out: Cell death

## CCOC(=O)c1ccc2ncc(S(=O)(=O)c3ccc(OC)cc3)c(N3CCC(N4CCCCCC4)CC3)c2c1 [Compound 173]
40 μm
  Cell death: 50%

## COc1ccc(S(=O)(=O)c2cnc3cc(OC)c(OC)cc3c2N2CCC(N3CCCCC3)CC2)cc1OC [Compound 122]
20 μm
  48 hrs (morphology observations): 0
  Cell death: 10%

## CCCCCCCCCCCCCCOc1ccc(S(=O)(=O)c2cnc3ccc([S+](C)[O-])cc3c2N2CCC(N3CCC(N4CCC(O)CC4)CC3)CC2)cc1 (centres unmarked) [Compound 375]
20 μm
  48 hrs (morphology observations): * (50% or less of cells vesicularize in cell shape)
  Cell death: 50%

## CCCCOc1ccc(S(=O)(=O)c2cnc3ccc([S+](C)[O-])cc3c2N2CCC(N3CCC(O)CC3)CC2)cc1 (centres unmarked) [Compound 168]
20 μm
  48 hrs (morphology observations): 0
  Cell death: 10%

## CCc1ccc(S(=O)(=O)c2cnc3ccc(OC)cc3c2NN2CCN(C)CC2)cc1 [Compound 83]
40 μm
  48 hrs (morphology observations): 0
[1]
  cytotoxicity at 40 µM: 20%

## CCCCCCCCCCCCCCOc1ccc(S(=O)(=O)c2cnc3ccc([S+](C)[O-])cc3c2N2CCC(N3CCN(CCO)CC3)CC2)cc1 (centres unmarked) [Compound 339]
[1]
  cytotoxicity at 20 µM: 50%

## CCN(CC)CCOc1ccc(S(=O)(=O)c2cnc3ccc(SC)cc3c2N2CCCN(C)CC2)cc1 [Compound 242]
40 μm
  48 hrs (morphology observations): 0
  Cell death: 30%

## CCCCOc1ccc(S(=O)(=O)c2cnc3ccc(S(C)(=O)=O)cc3c2N2CCC(N3CCC(O)CC3)CC2)cc1 [Compound 170]
20 μm
  48 hrs (morphology observations): 0
  Cell death: 10%

## COc1ccc(S(=O)(=O)c2cnc3cc(OC)c(OC)cc3c2N2C[C@@H]3C[C@H]2CN3C)cc1 [Compound 306]
40 μm
  48 hrs (morphology observations): 0
[1]
  cytotoxicity at 40 µM: 40%

## CCCCCCCCCCCCCCOc1ccc(S(=O)(=O)c2cnc3ccc([S+](C)[O-])cc3c2N2CCC(N3CCC(N4CCN(CCO)CC4)CC3)CC2)cc1 (centres unmarked) [Compound 345]
20 μm
  48 hrs (morphology observations): *** (more than 50% but less than 100% of endothelial cells vesicularize in cell shape)
  Cell death: 50%

## CCCCOc1ccc(S(=O)(=O)c2cnc3ccc(C(=O)OCC)cc3c2-n2cnnn2)cc1 [Compound 186]
10 μm
  48 hrs (morphology observations): **** (100% of endothelial cells vesicularize in cell shape and look flattened in morphology (indicating disintegration of the cell body))
  Cell death: 90%

## CCCCOc1ccc(S(=O)(=O)c2cnc3ccc(C(=O)OCC)cc3c2N2CC[S+]([O-])CC2)cc1 [Compound 195]
40 μm
  48 hrs (morphology observations): 0

## COc1ccc(S(=O)(=O)c2cnc3ccc(S(C)(=O)=O)cc3c2NN2CCN(C)CC2)cc1 [Compound 228]
40 μm
  48 hrs (morphology observations): 0
  Cell death: 5%

## CCCCOc1ccc(S(=O)(=O)c2cnc3ccc(C(=O)OCC)cc3c2N2CCCN(CCN3CCCCC3)CC2)cc1 [Compound 181]
40 μm
  48 hrs (morphology observations): **** (100% of endothelial cells vesicularize in cell shape and look flattened in morphology (indicating disintegration of the cell body))
  Cell death: 100%

## CNC(=O)c1ccc2ncc(S(=O)(=O)c3ccc(OC)cc3)c(NC)c2c1 [Compound 360]
40 μm
  48 hrs (morphology observations): 0
[1]
  cytotoxicity at 40 µM: 20%

## CCN(CC)CCCN1CCN(c2c(S(=O)(=O)c3ccc(OC)cc3)cnc3cc(OC)c(OC)cc23)CC1 [Compound 302]
40 μm
  48 hrs (morphology observations): 0
  Cell death: 70%

## CCCCCCCOc1ccc(S(=O)(=O)c2cnc3ccc(SC)cc3c2N2CCC(N3CCC(O)CC3)CC2)cc1 [Compound 223]
40 μm
  48 hrs (morphology observations): *** (more than 50% but less than 100% of endothelial cells vesicularize in cell shape)
[1]
  cytotoxicity at 40 µM: 30%

## COc1ccc(S(=O)(=O)c2cnc3ccc(SC)cc3c2NN2CCN(C)CC2)cc1 [Compound 226]
40 μm
  48 hrs (morphology observations): * (50% or less of cells vesicularize in cell shape)
  Cell death: 10%

## CCCCCCCCCCCCOc1ccc(S(=O)(=O)c2cnc3ccc([S+](C)[O-])cc3c2N2CCC(N3CCC(N4CCN(C)CC4)CC3)CC2)cc1 (centres unmarked) [Compound 341]
20 μm
  48 hrs (morphology observations): *** (more than 50% but less than 100% of endothelial cells vesicularize in cell shape)
  Cell death: 80%

## COc1ccc(S(=O)(=O)c2cnc3cc(OC)c(OC)cc3c2N2CCCN(C3CCSCC3)CC2)cc1 [Compound 329]
40 μm
  48 hrs (morphology observations): *** (more than 50% but less than 100% of endothelial cells vesicularize in cell shape)
  Cell death: 40%

## CCCCOc1ccc(S(=O)(=O)c2cnc3ccc([S+](C)[O-])cc3c2N2CCC(N3CCOCC3)CC2)cc1 (centres unmarked) [Compound 235]
40 μm
  48 hrs (morphology observations): 0
  Cell death: 10%

## CCCCOc1ccc(S(=O)(=O)c2cnc3ccc(SC)cc3c2N2CCCN(c3nc4ccc(Cl)cc4s3)CC2)cc1 [Compound 356]
40 μm
  48 hrs (morphology observations): 0
[1]
  cytotoxicity at 40 µM: 0%

## CCCCOc1ccc(S(=O)(=O)c2cnc3ccc(OC(F)(F)F)cc3c2N2CCSCC2)cc1 [Compound 187]
40 μm
  48 hrs (morphology observations): 0
  Cell death: 30%

## CNC(=O)c1ccc(C2CCN(c3c(S(=O)(=O)c4ccc(OC)cc4)cnc4cc(OC)c(OC)cc34)CC2)cc1 [Compound 310]
40 μm
  48 hrs (morphology observations): 0
  Cell death: 10%

## CCCCOc1ccc(S(=O)(=O)c2cnc3ccc(SC)cc3c2N2CCC(N3CCN(c4ccc(F)cc4)CC3)CC2)cc1 [Compound 233]
40 μm
  48 hrs (morphology observations): 0
  Cell death: 5%

## CCCCCCCCCCCCOc1ccc(S(=O)(=O)c2cnc3ccc([S+](C)[O-])cc3c2N2CCC(N3CCC(N4CCN(C)CC4)CC3)CC2)cc1F (centres unmarked) [Compound 370]
20 μm
  Cell death: 20%

## CCCCCCCOc1ccc(S(=O)(=O)c2cnc3ccc(SC)cc3c2N2CCCN(CCN3CCCCC3)CC2)cc1 [Compound 248]
20 μm
  48 hrs (morphology observations): * (50% or less of cells vesicularize in cell shape)
  Cell death: 60%

## CCCCCCCCCCOc1ccc(S(=O)(=O)c2cnc3ccc([S+](C)[O-])cc3c2N2CCC(N3CCC(N4CCOCC4)CC3)CC2)cc1 (centres unmarked) [Compound 286]
20 μm
  Cell death, read at 24 hrs: 0%
  Endothelial cell morphology score at 24 hrs: 0

## CNC(=O)c1ccc2ncc(S(=O)(=O)c3ccc(OC)cc3)c(N3CCC(N4CCCCC4)CC3)c2c1 [Compound 143]
40 μm
  48 hrs (morphology observations): 0
[1]
  cytotoxicity at 40 µM: 40%

## CCCCOc1ccc(S(=O)(=O)c2cnc3ccc(C(=O)OCC)cc3c2N2CCS(=O)(=O)CC2)cc1 [Compound 196]
40 μm
  48 hrs (morphology observations): 0
  Cell death: 30%

## CCCCCCCOc1ccc(S(=O)(=O)c2cnc3ccc(SC)cc3c2N2CCN(CCN3CCCCC3)CC2)cc1 [Compound 281]
20 μm
  Cell death: 50%

## CCCCCCCCCCOc1ccc(S(=O)(=O)c2cnc3ccc([S+](C)[O-])cc3c2N2CCC(N3CCN(CCO)CC3)CC2)cc1F (centres unmarked) [Compound 291]
20 μm
  Cell death, read at 24 hrs: 10%
  Endothelial cell morphology score at 24 hrs: * (50% or less of cells vesicularize in cell shape)

## CCOC(=O)c1ccc2ncc(S(=O)(=O)c3ccc(OC)cc3)c(-n3cncn3)c2c1 [Compound 183]
10 μm
  48 hrs (morphology observations): **** (100% of endothelial cells vesicularize in cell shape and look flattened in morphology (indicating disintegration of the cell body))
  Cell death: 100%

## CCCCCCCCCCOc1ccc(S(=O)(=O)c2cnc3ccc([S+](C)[O-])cc3c2N2CCN(C3CCN(CC)CC3)CC2)cc1 (centres unmarked) [Compound 283]
10 μm
  48 hrs (morphology observations): 0
[1]
  cytotoxicity at 10 µM: 5%

## COc1ccc(S(=O)(=O)c2cnc3cc(OC)c(OC)cc3c2N2CCCN(C3CCS(=O)(=O)CC3)CC2)cc1 [Compound 330]
40 μm
  48 hrs (morphology observations): *** (more than 50% but less than 100% of endothelial cells vesicularize in cell shape)
  Cell death: 50%
